Assay results: patent publication US6933296B2, “Compounds effective as β2-adrenoreceptor agonists as well as PDE4-inhibitors” (Altana Pharma B.V., priority 2000, dated 2005)

What was measured:
PDE4 = assay: Inhibition of PDE4 activity (cytosol from human neutrophils, [3H]cAMP hydrolysis); format: biochemical; conditions: 0.5 μM cAMP, Motapizone 1 μM, DMSO 0.5% for (some of) examples 1-19, 1% from example 20
Experimental: Method for Measuring Inhibition of PDE4 Activity
PDE4 activity was determined as described by Thompson et al. (Adv Cycl Nucl Res 10: 69-92, 1979) with some modifications (Bauer and Schwabe, Naunyn-Schmiedeberg's Arch Pharmacol 311: 193-198, 1980). At a final assay volume of 200 μl (96well microtiter plates) the assay mixture contained 20 mM Tris-HCl (pH 7.4), 5 mM MgCl2, 0.5 μM cAMP, [^3H]cAMP (about 30,000 cpm/assay), the test compound and an aliquot of cytosol from human neutrophils which mainly contains PDE4 activity as described by Schudt et al. (Naunyn-Schmiedeberg's Arch Pharmacol 344: 682-690, 1991); the PDE3-specific inhibitor Motapizone (1 μM) was included to suppress PDE3 activity originating from contaminating platelets.
To minimize problems with the solubility of the compounds, starting from example 20 serial dilutions of the compounds were prepared directly in DMSO and further diluted 1:100 (v/v) in the assays to obtain now the final concentrations of the inhibitors at a DMSO concentration of 1% (v/v) which by itself only slightly affected PDE4 activity.
After preincubation for 5 min at 37° C., the reaction was started by the addition of substrate (cAMP) and the assays were incubated for further 15 min at 37° C. 50 μl of 0.2 N HCl was added to stop the reaction and the assays were left on ice for about 10 min. Following incubation with 25 μg 5′-nucleotidase (Crotalus atrox snake venom) for 10 min at 37° C., the assays were loaded on QAE Sephadex A-25 (1 ml bed volume). The columns were eluted with 2 ml of 30 mM ammonium formiate (pH 6.0) and the eluate was counted for radioactivity. Results were corrected for blank values (measured in the presence of denatured protein) which were below 5% of total radioactivity. […] The IC50-values for the compounds according to the invention for the inhibition of the PDE4 activity were determined from the concentration-inhibition curves by nonlinear-regression.

β2-adrenoceptor = target: T1, β2-adrenoceptor (Cavia porcellus, UniProt Q8K4Z4); assay: β2-Adrenoceptor agonistic activity in isolated guinea-pig trachea (relaxation); format: cell-based; conditions: half-maximal relaxation of isolated guinea-pig trachea pre-treated with 3×10^−7 M RP 73401; for EC50: read-out: β2-Adrenoceptor agonistic affinity [-logEC50 (mol/l)] (converted)
T1 construct: Male guinea-pigs (350-450 g) were killed by a sharp blow on the head and exsanguination, after that the trachea was removed; from tissue; host or cells: isolated guinea-pig trachea (ring chains in organ bath)
T1 sequence (Q8K4Z4 whole entry): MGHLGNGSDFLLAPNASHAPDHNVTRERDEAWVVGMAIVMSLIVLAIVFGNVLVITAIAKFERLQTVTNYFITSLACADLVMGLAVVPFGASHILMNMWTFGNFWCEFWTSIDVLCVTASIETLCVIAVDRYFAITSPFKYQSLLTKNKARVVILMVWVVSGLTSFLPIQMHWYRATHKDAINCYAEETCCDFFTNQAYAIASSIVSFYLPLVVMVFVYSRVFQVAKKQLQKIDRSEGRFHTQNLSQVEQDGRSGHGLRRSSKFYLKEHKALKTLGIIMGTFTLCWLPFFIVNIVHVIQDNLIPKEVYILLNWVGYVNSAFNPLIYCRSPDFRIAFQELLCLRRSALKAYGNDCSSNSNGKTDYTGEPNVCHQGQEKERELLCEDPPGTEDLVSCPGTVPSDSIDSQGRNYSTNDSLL
Source text: b) β2-Adrenoceptor Agonistic Activity in Isolated Guinea-pig Trachea
Male guinea-pigs (350-450 g) were killed by a sharp blow on the head and exsanguination, after that the trachea was removed. After clearing off adhering tissue the trachea was cut into single rings which were tied together forming up to six 4- to 5-ring chains which were suspended in 10-ml organ baths containing Krebs buffer of the following composition (mM): NaCl 118, KCl 5.2, CaCl2 1.9, MgSO4 0.56, NaH2PO4 0.8, NaHCO3 25.0, and glucose 11.1, maintained at 37° C. and continuously aerated with a mixture of 95% O2 and 5% CO2. The end of the chain was tied at the bottom of the tissue bath and connected to a force-displacement transducer (Type K-30, Hugo Sachs Elektronik, Germany) for the recording of isometric tension changes and then placed under 1.5 to 2 g of tension. After a 60 min equilibration period, during which time the preparations were repeatedly washed and the spontaneous contraction plateaud, each tracheal preparation was pre-treated with 3×10^−7 M of RP 73401 for total inhibition of PDE4, which caused relaxation of the tissue between 30 and 40% of maximum (Harris et al., 1989, JPET 251: 199-206). After stabilization of the relaxant response to RP 73401, the test drugs were administered in a cumulative manner (factor 3), each concentration remaining in contact with the trachea until the […] response reached a plateau, before addition of the next higher concentration. At the end of the test drug administration, which caused maximal relaxation the tissue (verified in control experiments for each test drug by additional administration of 10^−6 M (−)-isoprenaline), a high concentration of the β-adrenoceptor antagonist, dl-sotalol (3−6×10^−4 M), was additionally given to assess whether the relaxant response of the trachea to test compound was due to β2-adrenoceptor stimulation. dl-Sotalol nearly completely reversed the relaxation amplitude to the test compounds and was taken as evidence for their β2-adrenoceptor agonistic property. The relaxant response to test compound was expressed as percent determined between the relaxant amplitude after that reached by RP 73401 (0%) and the maximal relaxation obtained prior to dl-sotalol administration (100%). EC50 values for a half-maximal relaxation of the tissue by test compound were graphically interpolated from 12 to 16 individual concentration-response curve. The −log EC50 values (mol/l) thus obtained were taken as a measure for β2-adrenoceptor agonistic activity of the test compounds.

human eosinophils = assay: Inhibition of C5a-stimulated chemiluminescence in human eosinophils; format: cell-based; conditions: 100 nM C5a, 100 nM salbutamol included as additional cAMP trigger; for IC30: Eosinophil, read-out: Inhibition of C5a-stimulated chemiluminescence [-logIC30 (mol/l)] (converted)
Source text: c) Inhibition of C5a-stimulated Chemiluminescence in Human Eosinophils
Eosinophils were purified essentially as described in detail elsewhere (Hatzelmann A, Tenor H and Schudt C, Differential effects of non-selective and selective phosphodiesterase inhibitors on human eosinophil functions. Brit J Pharmacol 114: 821-831, 1995). Briefly, total granulocytes were first purified from blood (anticoagulated with 0.3% w/v sodium citrate) by dextran sedimentation, centrifugation on Ficoll Paque and hypotonic lysis of remaining red blood cells. For the further purification of the eosinophil fraction the magnetic cell separation (MACS) system from Miltenyi Biotec (Bergisch-Gladbach, Germany) was applied. Eosinophils were separated from neutrophils by negative selection using anti-CD16 microbeads in a two-step protocol using D- and BS-(formerly called B2-) separation columns. By this method human eosinophils with a purity of >99% and a viability of >97% were obtained.
The chemiluminescence (CL) assay was essentially performed as described (Hatzelmann et al., 1995). Briefly, measurements were performed in a “CL-buffer” (140 mM NaCl, 5 mM KCl, 1 mM MgCl2, 10 mM HEPES, pH 7.4) containing 1 mM CaCl2, 1 mg/ml glucose, 0.05% (w/v) BSA, 10 μM luminol and 4 μM microperoxidase (all values correspond to final concentrations in the assays) in a total volume of 0.5 ml at a cell concentration of 10^6 cells/ml. Aliquots (0.4 ml) of the cell suspension (containing luminol and microperoxidase) were preincubated for 5 min at 37° C. in the absence or presence of inhibitors (0.05 ml). Stock solutions of the inhibitors (10 mM) were prepared in DMSO and diluted 1:100 (v/v) in CL-buffer; subsequent dilutions were made in 1% DMSO/CL-buffer to achieve the final drug concentrations in the assays at a DMSO concentration of 0.1% (v/v) which by itself only weakly affected the CL response. […] After preincubation, the assays were transferred into a “Multi-biolumat LB 9505C” from Berthold (Wildbad, Germany) and stimulated by the addition of 0.05 ml C5a (dissolved in CL-buffer; 100 nM final concentration). CL was continuously recorded for 1 min (C5a) and the AUC (area under the curve) calculated. Inhibition of CL by the compounds under these conditions is given as −log IC30 (mol/l).

| Compound | Inhibition of PDE4 activity [-logIC50] (PDE4) | EC50 (β2-adrenoceptor) | IC30 (human eosinophils) | melting point | β2-Adrenoceptor agonistic affinity [-logEC50 (mol/l)] (β2-adrenoceptor) | Inhibition of C5a-stimulated chemiluminescence [-logIC30 (mol/l)] (human eosinophils) |
| --- | --- | --- | --- | --- | --- | --- |
| COc1ccc(C2=NN(CCCCNCC(O)c3cc(Cl)c(N)c(Cl)c3)C(=O)[C@H]3CCCC[C@@H]23)cc1OC.O=C(O)/C=C/C(=O)O (relative stereo) [Compound 1, (cis)-2-(4-[{2-(4-amino-3,5-dichlorophenyl)-2-hydroxyethyl}-amino]-1-butyl)-4-(3,4-dimethoxyphenyl)-4a,5,6,7,8,8a-hexahydro-2H-phthalazin-1-one fumarate] | 6.97 | 12.9 nM | 3.02 µM | 85 to 88 °C | – | – |
| COc1ccc(C2=NN(C3CCN(C(=O)CCCNCC(O)c4cc(Cl)c(N)c(C#N)c4)CC3)C(=O)[C@@H]3CC=CC[C@H]23)cc1OC.O=C(O)/C=C/C(=O)O (stereo partly drawn) [Compound 20, 2-Amino-3-chloro-5-[2-(4-{4-[(4aS,8aR)-4-(3,4-dimethoxy-phenyl)-1-oxo-4a,5,8,8a-tetrahydro-1H-phthalazin-2-yl]-piperidin-1-yl}-4-oxo-butylamino)-1-hydroxy-ethyl]-benzonitrile fumarate] | 10.2 | 2.29 nM | 0.0794 µM | – | – | – |
| (cis)-2-(4-[{2-(4-amino-3-chloro-5-cyanophenyl)-2-hydroxyethyl}amino]-1-butyl)-4-(3,4-dimethoxyphenyl)-4a,5,8,8a-tetrahydro-2H-phthalazin-1-one hemifumarate [Compound 11] | – | – | – | – | 8.11 -log(mol/l) | 6.22 mol/l |
| (cis)-2-(5-[{2-(4-amino-3-chloro-5-cyanophenyl)-2-hydroxyethyl}amino]-1-pentyl)-4-(3,4-dimethoxyphenyl)-4a,5,8,8a-tetrahydro-2H-phthalazin-1-one hemifumarate [Compound 12] | – | – | – | – | 8.61 -log(mol/l) | 5.92 mol/l |
| (cis)-2-(6-[{2-(4-amino-3,5-dichlorophenyl)-2-hydroxyethyl}-amino]-1-hexyl)-4-(3,4-dimethoxyphenyl)-4a,5,6,7,8,8a-hexahydro-2H-phthalazin-1-one hemifumarate [Compound 2] | – | – | – | – | 6.86 -log(mol/l) | <5 mol/l |
| (cis)-2-(6-[{2-(4-amino-3,5-dichlorophenyl)-2-hydroxyethyl}-amino]-1-hexyl)-4-(3,4-dimethoxyphenyl)-4a,5,8,8a-tetrahydro-2H-phthalazin-1-one hemifumarate [Compound 6] | – | – | – | – | 7.60 -log(mol/l) | 6.00 mol/l |
| (cis)-2-(6-[{2-(4-amino-3-chloro-5-cyanophenyl)-2-hydroxyethyl}amino]-1-hexyl)-4-(3,4-dimethoxyphenyl)-4a,5,8,8a-tetrahydro-2H-phthalazin-1-one hemifumarate [Compound 13] | – | – | – | – | 6.91 -log(mol/l) | 6.52 mol/l |
| (cis)-2-(8-[{2-(4-amino-3,5-dichlorophenyl)-2-hydroxyethyl}-amino]-1-octyl)-4-(3,4-dimethoxyphenyl)-4a,5,6,7,8,8a-hexahydro-2H-phthalazin-1-one hemifumarate [Compound 3] | – | – | – | – | 6.77 -log(mol/l) | 6.52 mol/l |
| (cis)-4-(3,4-dimethoxyphenyl)-2-(6-[{2-(4-hydroxy-3-hydroxymethylphenyl)-2-hydroxyethyl}amino]-1-hexyl)-4a,5,6,7,8,8a-hexahydro-2H-phthalazin-1-one hemifumarate [Compound 14] | – | – | – | – | 7.24 -log(mol/l) | 5.30 mol/l |
